# Test results published in article PMC8058344, “ARIH1 signaling promotes anti-tumor immunity by targeting PD-L1 for proteasomal degradation” (Nature Communications, 2021).
# System: PD-L1 in H1975 cells
# Assay: PD-L1 levels in H1975 cells by immunoblotting and flow cytometry
# Type: cell-based, human
# Details: H1975 cells, 10 μM ES-072 for 12 h
# Protocol: Fig. 1 EGFR inhibitors were screened to reduce membrane PD-L1 levels. a High-throughput screening of 2125 FDA-approved drugs or drug candidates. U937 cells were incubated with IFNγ (100 ng/mL) for 48 h, treated with the drugs at 10 μM for 12 h. Ruxolitinib (Rux) was used as a positive control. The hit compounds that induced the decrease of PD-L1 levels are shown in blue. The depth of blue represents decreased level of PD-L1. The heatmap represents the targeted pathways obtained from the high-throughput screening, based upon decreased membrane PD-L1 level detected by flow cytometry. b Immunoblotting of PD-L1 in U937 cells treated with ES-072 (ES) or AZD9291 (AZD) at indicated concentrations for 12 h. ES and AZD are EGFR inhibitors. c, d Median fluorescence intensity (MFI) (c) and relative quantification (d) of PD-L1 in U937 cells treated with 10 μM ES-072 or 10 μM AZD9291 for 12 h. Data represent means ± SEM, n = 18, 6 independent repeats, ****P < 0.0001. e–g Immunoblotting (e, f) and flow cytometry (g) analysis of PD-L1 levels in U937 cells treated with 10 μM ES-072 or 10 μM AZD9291 for the indicated times. h, i Immunoblottings (h) of PD-L1 and β-TrCP, relative quantification (i) of PD-L1 MFI in H1975 cells transfected with non-targeting siRNA (si-CTRL) or β-TrCP siRNAs (si-β-TrCP) and treated with or without 10 μM ES-072/AZD9291 for 12 h. Data represent means ± SEM, n = 9, 3 independent repeats, NS: no significant; ****P < 0.0001. j–l Immunoblotting (j) and flow cytometry analysis (k) with relative quantification (l) of PD-L1 in H1975 cells treated with 10 μM ES-072 or AZD9291, and/or 5 μM LY2090314 (LY) for 12 h. […]
# Fig. 5 GSK3α-mediated phosphorylation of PD-L1 promotes PD-L1-ARIH1 interaction and ARIH1-induced degradation. a Co-IP analysis for the interaction of K48-ubiquitin, ARIH1 (HA), and PD-L1 in HEK293T cells transfected with HA-ARIH1 and Flag-PD-L1 (WT, S279A, S283A, or 2SA), treated with MG132 (10 μM) for 6 h; HA-tagged empty vector (HA-EV) was transfected as a negative control. b Co-IP analysis for the interaction of ARIH1 and PD-L1 in HEK293T cells transfected with HA-ARIH1 and Flag-PD-L1 (WT or 2SA), treated with 10 μM ES-072 for 24 h, Flag-tagged empty vector (Flag-EV) was transfected as a negative control. c HEK293T cells were transfected with Flag-PD-L1. Co-IP analysis for the interaction of ubiquitin and PD-L1 in HEK293T cells transfected with ARIH1-siRNAs or HA-GSK3α and treated with MG132 (10 μM) for 6 h; non-targeting siRNA (si-CTRL) was transfected as a negative control. d Immunoblots of PD-L1 and ARIH1 (HA) in H1975 cells transfected with HA-ARIH1, treated with or without 5 μM LY for 6 h. e, f MFI (e) and relative quantification (f) of PD-L1 in HA-ARIH1-overexpressed H1975 cells, treated with or without 5 μM LY for 6 h. […]
smiles,measurement,value
C=CC(=O)Nc1cccc(Nc2nc(Nc3ccc(N4CCN(C)CC4)nc3OC)ncc2C(F)(F)F)c1 [ES-072],PD-L1 level in whole cell lysate (WCL) and outer membrane protein (OMP),decreased
